What was measured:
Type in all cases: binding
Parameters in all cases: KINOMEscan: ABL1(F317L)-phosphorylated / KINOMEscan: ABL1(H396P)-nonphosphorylated / KINOMEscan: ABL1(H396P)-phosphorylated / KINOMEscan: ABL1(M351T)-phosphorylated / KINOMEscan: ABL1(T315I)-phosphorylated / KINOMEscan: ABL1-nonphosphorylated / KINOMEscan: ABL1-phosphorylated / KINOMEscan: ACVR2A / KINOMEscan: ACVR2B / KINOMEscan: ADCK3 / KINOMEscan: ADCK4 / KINOMEscan: AKT1 / KINOMEscan: AKT3 / KINOMEscan: ALK / KINOMEscan: ARK5 / KINOMEscan: AURKA / KINOMEscan: AURKC / KINOMEscan: BIKE / KINOMEscan: BMPR1A / KINOMEscan: BMPR1B / KINOMEscan: BMX / KINOMEscan: BRK / KINOMEscan: BRSK1 / KINOMEscan: BRSK2 / KINOMEscan: CAMK1 / KINOMEscan: CAMK1D / KINOMEscan: CAMK1G / KINOMEscan: CAMK2A / KINOMEscan: CAMK2B / KINOMEscan: AAK1 / KINOMEscan: CAMK2D / KINOMEscan: CAMK2G / KINOMEscan: ABL1(F317I)-nonphosphorylated / KINOMEscan: ABL1(F317I)-phosphorylated / KINOMEscan: ABL1(F317L)-nonphosphorylated: unit: % Ctrl
Settings in all cases: Compound Concentration 10 µM
[1] = molecular target: T1, panel of 442 kinases (Homo sapiens, UniProt Q13873)
T1 construct: purchased KINOMEscan
T1 sequence (Q13873 27-1038): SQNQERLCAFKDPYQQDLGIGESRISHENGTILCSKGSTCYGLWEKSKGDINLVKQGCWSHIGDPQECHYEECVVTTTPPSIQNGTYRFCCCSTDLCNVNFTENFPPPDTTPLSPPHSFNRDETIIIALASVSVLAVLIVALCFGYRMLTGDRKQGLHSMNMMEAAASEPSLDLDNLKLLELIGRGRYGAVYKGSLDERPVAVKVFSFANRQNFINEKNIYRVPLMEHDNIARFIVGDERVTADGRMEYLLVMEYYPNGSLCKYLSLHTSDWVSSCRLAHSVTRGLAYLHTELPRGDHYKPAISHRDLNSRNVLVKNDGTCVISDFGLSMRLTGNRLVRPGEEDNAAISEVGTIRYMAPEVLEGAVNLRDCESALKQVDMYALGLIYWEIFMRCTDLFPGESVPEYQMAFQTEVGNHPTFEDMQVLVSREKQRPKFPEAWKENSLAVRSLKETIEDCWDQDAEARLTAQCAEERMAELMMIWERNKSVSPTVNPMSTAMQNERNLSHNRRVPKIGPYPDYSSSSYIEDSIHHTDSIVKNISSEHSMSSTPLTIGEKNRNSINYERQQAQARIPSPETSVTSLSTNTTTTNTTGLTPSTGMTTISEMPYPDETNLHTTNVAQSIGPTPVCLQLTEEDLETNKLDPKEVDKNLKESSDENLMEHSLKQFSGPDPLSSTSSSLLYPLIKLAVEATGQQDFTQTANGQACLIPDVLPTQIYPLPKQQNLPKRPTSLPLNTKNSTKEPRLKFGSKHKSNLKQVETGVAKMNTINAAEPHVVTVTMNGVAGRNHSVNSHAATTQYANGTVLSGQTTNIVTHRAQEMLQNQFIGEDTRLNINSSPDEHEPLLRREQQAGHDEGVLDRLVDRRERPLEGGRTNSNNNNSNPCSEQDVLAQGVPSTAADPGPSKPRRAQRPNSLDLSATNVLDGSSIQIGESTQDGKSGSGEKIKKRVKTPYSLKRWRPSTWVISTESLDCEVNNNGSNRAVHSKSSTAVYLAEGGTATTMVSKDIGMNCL
From the text: (§1) We assessed the selectivity of members of this scaffold using the KINOMEscan methodology across a near comprehensive panel of 442 kinases [[18,27]].

[2] = molecular target: T2, panel of 442 kinases (Homo sapiens, UniProt Q14012)
T2 construct: purchased KINOMEscan
T2 sequence (Q14012 whole entry): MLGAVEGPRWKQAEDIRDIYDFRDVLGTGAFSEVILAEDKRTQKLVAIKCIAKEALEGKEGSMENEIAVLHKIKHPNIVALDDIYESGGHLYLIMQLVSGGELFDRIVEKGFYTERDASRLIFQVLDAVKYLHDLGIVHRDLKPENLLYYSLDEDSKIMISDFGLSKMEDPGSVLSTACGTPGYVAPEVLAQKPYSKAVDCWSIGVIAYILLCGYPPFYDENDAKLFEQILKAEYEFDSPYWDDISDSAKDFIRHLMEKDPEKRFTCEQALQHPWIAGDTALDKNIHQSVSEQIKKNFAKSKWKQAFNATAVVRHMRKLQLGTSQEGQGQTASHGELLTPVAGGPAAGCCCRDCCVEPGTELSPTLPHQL
From the text: as §1

[3] = molecular target: T3, panel of 442 kinases (Homo sapiens, UniProt Q2M2I8)
T3 construct: purchased KINOMEscan
T3 sequence (Q2M2I8 whole entry): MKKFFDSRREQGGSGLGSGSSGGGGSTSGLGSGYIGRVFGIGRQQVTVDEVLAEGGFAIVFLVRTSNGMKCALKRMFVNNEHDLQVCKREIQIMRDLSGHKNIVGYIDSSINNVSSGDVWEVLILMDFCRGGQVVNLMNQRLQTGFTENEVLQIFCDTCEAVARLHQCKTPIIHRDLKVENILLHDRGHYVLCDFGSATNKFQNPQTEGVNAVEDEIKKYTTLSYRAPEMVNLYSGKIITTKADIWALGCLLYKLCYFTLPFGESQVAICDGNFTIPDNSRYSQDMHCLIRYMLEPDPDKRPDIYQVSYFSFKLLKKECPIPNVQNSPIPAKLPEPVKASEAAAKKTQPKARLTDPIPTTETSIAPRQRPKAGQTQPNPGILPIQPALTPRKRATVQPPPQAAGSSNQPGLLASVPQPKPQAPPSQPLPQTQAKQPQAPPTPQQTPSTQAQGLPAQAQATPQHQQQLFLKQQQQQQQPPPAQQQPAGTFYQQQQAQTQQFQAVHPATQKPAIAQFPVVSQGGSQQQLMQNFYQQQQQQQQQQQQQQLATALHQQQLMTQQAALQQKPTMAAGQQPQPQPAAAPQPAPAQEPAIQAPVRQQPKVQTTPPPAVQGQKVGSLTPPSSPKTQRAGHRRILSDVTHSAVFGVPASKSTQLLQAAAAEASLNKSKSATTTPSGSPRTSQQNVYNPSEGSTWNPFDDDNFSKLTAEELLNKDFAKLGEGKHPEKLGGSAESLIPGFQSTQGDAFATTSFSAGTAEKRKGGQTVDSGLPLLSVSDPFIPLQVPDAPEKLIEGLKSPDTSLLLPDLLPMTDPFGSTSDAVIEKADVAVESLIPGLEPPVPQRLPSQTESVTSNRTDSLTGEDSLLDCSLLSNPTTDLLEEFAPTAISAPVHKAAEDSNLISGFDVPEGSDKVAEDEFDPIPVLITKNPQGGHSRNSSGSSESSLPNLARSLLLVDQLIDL
From the text: as §1

| SMILES | KINOMEscan: BMPR2 [1] | KINOMEscan: CAMK1 [2] | KINOMEscan: AAK1 [3] |
| --- | --- | --- | --- |
| COc1cc(C(=O)N2CCC(N3CCN(C)CC3)CC2)ccc1Nc1ncc2c(n1)N(C)c1ccccc1C(=O)N2C [15 (LRRK2-IN-1)] | 100 | 55 | 84 |
| CCOc1cc(C(=O)N2CCC(N3CCN(C)CC3)CC2)ccc1Nc1ncc2c(n1)N(C1CCCC1)c1ccccc1C(=O)N2C [Compound 26] | 93 | 37 | 100 |
| COc1cc(C(=O)N2CCC(N3CCN(C)CC3)CC2)ccc1Nc1ncc2c(n1)N1CCc3cccc(c31)C(=O)N2C [Compound 24] | – | 68 | – |
| COc1cc(C(=O)N2CCC(N3CCN(C)CC3)CC2)ccc1Nc1ncc2c(n1)N(C1CCCC1)c1ccccc1C(=O)N2C [Compound 25, 11-cyclopentyl-2-((2-methoxy-4-(4-(4-methylpiperazin-1-yl)piperidine-1-carbonyl)phenyl)amino)-5-methyl-5H-benzo[e]pyrimido[5,4-b][1,4]diazepin-6(11H)-one] | 100 | 48 | 89 |
